Paper PMC12859765, “Phosphatidylcholine with C26:0 moiety, a precursor of a diagnostic marker for X-ALD, is synthesized by LPLAT10/LPEAT2” (Journal of Lipid Research, 2025)

Molecular target: T1, LPLAT8/LPCAT1 (Homo sapiens, UniProt Q8NF37)
T1 construct: transiently expressed in HEK 293T; 100,000 g membrane fraction
T1 sequence (Q8NF37 1-534): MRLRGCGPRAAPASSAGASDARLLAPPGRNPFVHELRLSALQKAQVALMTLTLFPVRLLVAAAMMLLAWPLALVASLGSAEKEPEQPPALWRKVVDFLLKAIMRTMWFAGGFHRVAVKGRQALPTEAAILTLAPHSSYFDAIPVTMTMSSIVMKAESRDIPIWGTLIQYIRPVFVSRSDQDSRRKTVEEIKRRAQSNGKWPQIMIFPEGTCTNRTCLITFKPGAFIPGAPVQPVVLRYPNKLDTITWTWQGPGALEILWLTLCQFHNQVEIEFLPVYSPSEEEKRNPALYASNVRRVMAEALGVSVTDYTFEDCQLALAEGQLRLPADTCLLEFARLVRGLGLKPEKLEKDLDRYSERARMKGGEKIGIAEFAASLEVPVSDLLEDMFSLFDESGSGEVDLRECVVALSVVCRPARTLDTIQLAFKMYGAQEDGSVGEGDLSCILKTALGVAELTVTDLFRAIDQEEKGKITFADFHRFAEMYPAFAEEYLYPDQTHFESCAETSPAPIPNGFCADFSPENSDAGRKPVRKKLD
Assay: LC-MS/MS acyltransferase assay, membrane fraction
Type: biochemical
Details: pH 7.4, 37 °C

CCCCCCCCCCCCCCCC(=O)O[C@H](CO)COP(=O)([O-])OCC[N+](C)(C)C [2-16:0-d31-LPC]
LC-MS/MS acyltransferase assay, membrane fraction (donor C26:0-CoA 10 µM, LPC 20 µM, labelled compound): C26:0-CoA transfer activity was not significantly different between 2-acyl-LPC and 1-acyl-LPC

CCCCCCCCCCCCCCCCCCCCCCCCCC(=O)SCCNC(=O)CCNC(=O)[C@H](O)C(C)(C)COP(=O)(O)OP(=O)(O)OC[C@H]1O[C@@H](n2cnc3c(N)ncnc32)[C@H](O)[C@@H]1OP(=O)(O)O [C26:0-CoA]
LC-MS/MS acyltransferase assay, membrane fraction (10 µM acyl-CoA, acceptor 2-16:0-d31-LPC 20 µM): LPLAT8/LPCAT1, which has very high homology with LPLAT10 in terms of amino acid sequence, showed slight activity
